From US10202347B2, “Compound, production method therefor, and use of said compound” (MICROBIAL CHEMISTRY RESEARCH FOUNDATION, priority 2013, dated 2019)

Tested on: human stomach cancer cells MKN-74
Experiment: Anti-cancer activity in vivo, Test Example 2-1: MKN-74 alone, subcutaneous tumor in nude mice
Design: species or system BALB/c nu/nu nude mice
Conditions: intravenous administration at 12.5 mg/kg, FIGS. 1A, 1B
Protocol: BALB/c nu/nu nude mice (female, 5 weeks old, product of Charles River Co.) were bred under the SPF conditions.
Cultured human stomach cancer cells MKN-74 were trypsinized, and the human stomach cancer cells MKN-74 (8×10^6 cells) peeled off from the culture dish were dispersed in 0.3 mL DMEM containing 10% FBS and mixed with 0.5 mL growth factor-reduced Matrigel (product of BD Biosciences Co.).
The above mixed cell liquid (0.1 mL) (cancer cells: 1×10^6 cells) was subcutaneously inoculated to the left groin region of the above mice.
The compound expressed by the Structural Formula (2) or the compound expressed by the Structural Formula (13) was intravenously administered for a predetermined period, and tumor formed under the skin was cut out and measured for weight. Note that, the administration dose of the compound expressed by the Structural Formula (2) or the compound expressed by the Structural Formula (13) was 12.5 mg/kg per administration day.
Also, a tumor volume was calculated from the following formula referring to the above NPL 1. Tumor volume (mm^3)=(major axis×minor axis^2)/2
Note that, as controls, those to which physiological saline (vehicle) was administered instead of the compound expressed by the Structural Formula (2) or the compound expressed by the Structural Formula (13) were tested in the same manner.

In the case of `CCCCCCCCc1nc2ccccc2c(OCC(=O)O)c1C` [Structural Formula (2)], the “tumor suppression (tumor volume, tumor weight Day 21)” value is reported as “significant suppression”.
